From ChEMBL document CHEMBL1201862, “PubChem BioAssay data set” (2004)
Where a name gives a salt, the structure may show the parent alone.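 How tested: cells in 96-well plates exposed to compound for 48 hours at five concentrations. GI50 = concentration required for 50% inhibition of growth.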 The source made the active and inactive calls. Cut-off read from the data, not from the text of the source: active = GI50 up to about 1.1 µM and inactive = higher.

How the values were obtained:
Assay in all cases: NCI anticancer screen, dose series, 48 h
IGROV-1 = system: IGROV-1
SW-620 = system: SW-620
SR = system: SR
U-251 = system: U-251
RPMI-8226 = system: RPMI-8226
NCI-H226 = system: NCI-H226
KM12 = system: KM12
COLO 205 = system: COLO 205
Hs-578T = system: Hs-578T
SF-539 = system: SF-539
T47D = system: T47D
CCRF-CEM = system: CCRF-CEM
786-0 = system: 786-0
HCT-15 = system: HCT-15
NCI-H23 = system: NCI-H23
M14 = system: M14
SK-MEL-2 = system: SK-MEL-2
OVCAR-5 = system: OVCAR-5
HOP-92 = system: HOP-92
MDA-N = system: MDA-N

| Compound | GI50 (IGROV-1) | GI50 (SW-620) | GI50 (SR) | GI50 (U-251) | GI50 (RPMI-8226) | GI50 (NCI-H226) | GI50 (KM12) | GI50 (COLO 205) | GI50 (Hs-578T) | GI50 (SF-539) | GI50 (T47D) | GI50 (CCRF-CEM) | GI50 (786-0) | GI50 (HCT-15) | GI50 (NCI-H23) | GI50 (M14) | GI50 (SK-MEL-2) | GI50 (OVCAR-5) | GI50 (HOP-92) | GI50 (MDA-N) |
| --- | --- | --- | --- | --- | --- | --- | --- | --- | --- | --- | --- | --- | --- | --- | --- | --- | --- | --- | --- | --- |
| COc1cc2c(cc1OC)C(Cc1ccccc1CCCl)=NCC2 | 27 µM (inactive) | 42 µM (inactive) | 84.1 µM (inactive) | 53.2 µM (inactive) | 24.2 µM (inactive) | 31.3 µM (inactive) | 36.8 µM (inactive) | 26.6 µM (inactive) | 73.5 µM (inactive) | 21.2 µM (inactive) | 31.8 µM (inactive) | 58.7 µM (inactive) | > 100 µM (inactive) | 25.1 µM | 22 µM (inactive) | 38.1 µM (inactive) | > 100 µM (inactive) | > 100 µM (inactive) | 30.3 µM (inactive) |  |
| CN(C)CCOC(=O)COc1ccc(Cl)cc1 [CENTROPHENOXINE HYDROCHLORIDE] | > 100 µM (inactive) | > 100 µM (inactive) | > 100 µM (inactive) | > 100 µM (inactive) |  | > 100 µM (inactive) | > 100 µM (inactive) | > 100 µM (inactive) |  | > 100 µM (inactive) | > 100 µM (inactive) | > 100 µM (inactive) | > 100 µM (inactive) | > 100 µM | > 100 µM (inactive) | > 100 µM (inactive) | > 100 µM (inactive) | > 100 µM (inactive) | > 100 µM (inactive) | > 100 µM (inactive) |
| Cc1oc2nc(N(C)C)nc(Cl)c2c1C | 49.8 µM (inactive) | > 100 µM (inactive) |  | > 100 µM (inactive) | > 100 µM (inactive) | 84.1 µM (inactive) | > 100 µM (inactive) | > 100 µM (inactive) | > 100 µM (inactive) | > 100 µM (inactive) | 46.7 µM (inactive) | > 100 µM (inactive) | > 100 µM (inactive) | > 100 µM | > 100 µM (inactive) | > 100 µM (inactive) | > 100 µM (inactive) | > 100 µM (inactive) | 25.2 µM (inactive) |  |
| COc1ccc(O)c(/C=N/CCC/N=C/c2cc(OC)ccc2O)c1 | 34.4 µM (inactive) | 39 µM (inactive) | 14 µM (inactive) | 16.7 µM (inactive) | 11.7 µM (inactive) | 27.4 µM (inactive) | 13.8 µM (inactive) |  | 24.5 µM (inactive) |  |  | 3.8 µM (inactive) | 33.7 µM (inactive) | 18.1 µM | 43.5 µM (inactive) | 37.2 µM (inactive) | 31.6 µM (inactive) | 38.3 µM (inactive) | 20.2 µM (inactive) | 31.3 µM (inactive) |
| CO/C(=N\N=C\c1cccc(Cl)c1)c1ccncc1 |  | > 10 µM (inactive) | > 10 µM (inactive) | > 10 µM (inactive) | > 10 µM (inactive) | > 10 µM (inactive) | > 10 µM (inactive) | > 10 µM (inactive) |  |  | > 10 µM (inactive) | > 10 µM (inactive) | > 10 µM (inactive) | > 10 µM | > 10 µM (inactive) | > 10 µM (inactive) | > 10 µM (inactive) | > 10 µM (inactive) | > 10 µM (inactive) | > 10 µM (inactive) |
| C#CCOCC12C=CC(O1)C1C(=O)N(C)C(=O)C12 (stereo not given) | > 100 µM (inactive) | > 100 µM (inactive) | > 100 µM (inactive) | > 100 µM (inactive) | > 100 µM (inactive) | > 100 µM (inactive) | > 100 µM (inactive) | > 100 µM (inactive) |  | > 100 µM (inactive) | > 100 µM (inactive) | > 100 µM (inactive) | > 100 µM (inactive) | > 100 µM | > 100 µM (inactive) | > 100 µM (inactive) |  | > 100 µM (inactive) |  | > 100 µM (inactive) |
| COC(=O)c1ccc(C)cc1/C=C1\Cc2ccc(C)cc2C1=O | 10.4 µM (inactive) | 19.5 µM (inactive) | 3.9 µM (inactive) | 12.6 µM (inactive) | 11.8 µM (inactive) | 10.1 µM (inactive) | 11.6 µM (inactive) | 8.63 µM (inactive) | 23.1 µM (inactive) | 12.4 µM (inactive) | 17.1 µM (inactive) | 18.2 µM (inactive) | 16.9 µM (inactive) | 13 µM | 23.9 µM (inactive) | 16.1 µM (inactive) |  | 15.9 µM (inactive) | 15.5 µM (inactive) |  |
| O=C(O)CCN(CCC(=O)O)c1ccc(/C=C2\SC(=S)NC2=O)cc1 | > 100 µM (inactive) | > 100 µM (inactive) | > 100 µM (inactive) | > 100 µM (inactive) | > 100 µM (inactive) | > 100 µM (inactive) | > 100 µM (inactive) | > 100 µM (inactive) | > 100 µM (inactive) | > 100 µM (inactive) | > 100 µM (inactive) | > 100 µM (inactive) | > 100 µM (inactive) | > 100 µM | > 100 µM (inactive) | > 100 µM (inactive) | > 100 µM (inactive) | > 100 µM (inactive) | > 100 µM (inactive) |  |
| Cc1cc(Cl)ccc1NC(=O)/C(CC(=O)CC(c1ccccc1)c1c(O)c2ccccc2oc1=O)=N\O (stereo not given) | > 100 µM (inactive) | > 100 µM (inactive) |  | > 100 µM (inactive) |  | > 100 µM (inactive) | > 100 µM (inactive) | > 100 µM (inactive) | > 100 µM (inactive) | > 100 µM (inactive) |  | 7.87 µM (inactive) | > 100 µM (inactive) | > 100 µM | > 100 µM (inactive) | > 100 µM (inactive) | > 100 µM (inactive) | > 100 µM (inactive) | 39.2 µM (inactive) | > 100 µM (inactive) |
| O=c1n(CCCN2CCN(c3cccc(Cl)c3)CC2)nc2n1-c1ccc3ccccc3c1SC2 | > 100 µM (inactive) | > 100 µM (inactive) | > 100 µM (inactive) | > 100 µM (inactive) | 58.9 µM (inactive) | > 100 µM (inactive) | > 100 µM (inactive) | 4.4 µM (inactive) | > 100 µM (inactive) | > 100 µM (inactive) |  | > 100 µM (inactive) | > 100 µM (inactive) | > 100 µM |  |  | > 100 µM (inactive) | > 100 µM (inactive) | > 100 µM (inactive) | > 100 µM (inactive) |
| N#CC(C(=O)C(=O)Nc1ccc(Cl)c(Cl)c1)c1ccc(Cl)cc1 (stereo not given) | > 100 µM (inactive) | 16 µM (inactive) | 51.9 µM (inactive) | 40.8 µM (inactive) | 35.2 µM (inactive) | > 100 µM (inactive) | > 100 µM (inactive) | 45.1 µM (inactive) |  | > 100 µM (inactive) |  | 48.1 µM (inactive) | 41 µM (inactive) | 32.5 µM | > 100 µM (inactive) | > 100 µM (inactive) | 34.2 µM (inactive) | > 100 µM (inactive) | 36.4 µM (inactive) |  |
| CCC1OC2(C)CC(C#N)(C#N)C1(C#N)C(=N)O2 (stereo not given) | > 100 µM (inactive) | > 100 µM (inactive) |  | > 100 µM (inactive) |  |  | > 100 µM (inactive) | > 100 µM (inactive) | > 100 µM (inactive) | > 100 µM (inactive) | > 100 µM (inactive) | > 100 µM (inactive) | > 100 µM (inactive) |  | > 100 µM (inactive) | > 100 µM (inactive) | > 100 µM (inactive) | > 100 µM (inactive) | > 100 µM (inactive) | > 100 µM (inactive) |
| CCN(CC)CCC(=O)NC1c2ccc(Cl)cc2Oc2c(C)cccc21 (stereo not given) | 13 µM (inactive) | 16.7 µM (inactive) | 18.5 µM (inactive) | > 10 µM (inactive) | 24.9 µM (inactive) |  | 15.6 µM (inactive) | 18.6 µM (inactive) |  | 13.2 µM (inactive) | 14 µM (inactive) | 17.2 µM (inactive) | 12.6 µM (inactive) | 18.7 µM | 17.4 µM (inactive) | 17.5 µM (inactive) |  | 15.6 µM (inactive) | 25.8 µM (inactive) | 16.6 µM (inactive) |
| C/C1=C/C(=O)O[C@@H]2C[C@@H](CC[C@H](C)/C=C\C=C\CC1)O[C@@](O)([C@@H]1CSC(=O)N1)C2 [LATRUNCULIN A] | 0.133 µM (active) |  | 0.653 µM (active) | > 10 µM (inactive) | > 10 µM (inactive) | 0.272 µM (active) | > 10 µM (inactive) | 0.18 µM (active) | 0.114 µM (active) | 0.171 µM (active) |  | 0.438 µM (active) | 0.226 µM (active) | 0.52 µM | 2.14 µM (inactive) | 0.565 µM (active) | 5.25 µM (inactive) | 0.484 µM (active) | 0.116 µM (active) | > 5.07 µM (inactive) |
| O=C1ON=C2C3CC4CC12CC1(C3)C(=O)ON=C41 | > 100 µM (inactive) | > 100 µM (inactive) | > 100 µM (inactive) | > 100 µM (inactive) | > 100 µM (inactive) | > 100 µM (inactive) | > 100 µM (inactive) | > 100 µM (inactive) |  | > 100 µM (inactive) |  | > 100 µM (inactive) | > 100 µM (inactive) |  | > 100 µM (inactive) | > 100 µM (inactive) | > 100 µM (inactive) | > 100 µM (inactive) | > 100 µM (inactive) | > 100 µM (inactive) |
| COc1ccc(/C=C(\C#N)c2nc(N)nc(N3N=C(C)CC3(C)C)n2)c(O)c1 | 24 µM (inactive) |  | 16.9 µM (inactive) | 26.7 µM (inactive) | 41.3 µM (inactive) | 16.7 µM (inactive) | 15.6 µM (inactive) | 17 µM (inactive) | 18.3 µM (inactive) | 15.7 µM (inactive) | 15.9 µM (inactive) | 40.2 µM (inactive) | 16.4 µM (inactive) | 17.7 µM | 18.8 µM (inactive) | 20.3 µM (inactive) | 20.7 µM (inactive) | 15.3 µM (inactive) | 31.5 µM (inactive) |  |
